Results from patent US11267826B2, “Penicillin-binding protein inhibitors” (priority 2017, dated 2022).

Tests used:
[1] = test system: hyper-permeable E. coli 901C; test: Broth microdilution MIC assay, hyper-permeable E. coli; type: cell-based; conditions: Escherichia coli, read-out: E. coli 901C MIC
Procedure, shortened: (§1)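 Visual no-growth endpoint defines the MIC. Inoculum of 5×10^5 CFU/mL in divalent-cation-supplemented Mueller-Hinton broth was exposed to 2-fold dilution series of compound, then incubated 16-20 hours at 37° C per CLSI.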

[2] = test system: E. coli K12 PBP1a/b; test: Bocillin FL competition binding assay, PBP1a/1b combined; parameters: species or system Escherichia coli K12; conditions: 15 min pre-incubation, PBP 1a/1b combined
Description: (§2) To determine the ability of test compounds to bind Penicillin Binding Proteins (PBPs), a competition binding assay using Bocillin FL (fluorescent derivative of penicillin V) was adapted from the classical method used to assess PBP potency of beta-lactams.
(§3) Penicillin binding proteins were isolated from Escherichia coli K12 by growth of Escherichia coli K12 from a single colony in 4 L of Luria-Bertani (LB) broth at 35° C. and 250 rpm to an OD600 nm of 0.5. The cells were harvested by centrifugation at 7,000×g for 10 min. at 4° C. Cells were resuspended and washed in 50 mM potassium phosphate pH 7.5. The cells were re-suspended in sonication buffer [50 mM Tris-HCl pH 7.5, 1 mM MgCl2, 1 mM beta-mercaptoethanol, and 5 μg/mL DNAse I] and sonicated by 4 passes of 30 seconds at 45 W on ice. The sample was clarified by centrifugation at 3,000×g to remove cell debris and unbroken cells and supernatant containing the membrane proteins was retained. The membrane proteins including the PBPs were further purified from soluble constituents by an ultracentrifugation step at 100,000×g for 30 min. at 4° C. The membrane proteins are washed twice with 10 mM sodium phosphate pH 7, resuspended in a volume of 5 mL, quantitated by BCA assay, adjusted to […] and frozen at −80° C. until use.
(§4) The adapted Bocillin FL competition binding method described herein incorporates a 15 min. pre-incubation of test compound with isolated PBPs to attempt to balance the difference in mechanism of inhibition between beta-lactams (largely irreversible covalent bond to active site Serine) and the boron-containing PBP inhibitor test compounds (reversible covalent bond to active site Serine). Briefly, 50 μL reactions consisted of 100 μg's of total membrane protein extracts containing PBPs incubated with a dilution series of test compound ranging from 0.005 μg/mL to 2,480 μg/mL in 10 mM sodium phosphate pH7 containing 350 mM NaCl. Thirty minute reactions at 35° C. were initiated by addition of […] Bocillin FL, quenched by addition of SDS-PAGE loading buffer containing sodium dodecyl sulfate (SDS) and heated for 15 minutes at 95° C. to denature proteins in preparation for SDS-polyacrylamide gel electrophoresis. The Bocillin FL labeled PBPs are then separated by SDS-PAGE in Novex NuPage 10% Bis-Tris pre-cast gels (Invitrogen). The SDS-PAGE gel, post-electrophoresis, is then washed in water to remove excess SDS for 10 minutes at room temperature and placed on the scanning bed of a GE Healthcare/Amersham Biosciences Storm 860 fluorescence scanner. The excitation wavelength is in the blue spectrum at 450 nm and the emission at 520 nm is captured by the instrument. Effective PBP inhibitors are detected by a reduction in Bocillin FL labeling of the particular PBP over the dose range of test compound in a dose-responsive manner. High molecular weight PBP 1a/1b are not resolved by these gels, thus we report HMW PBP binding results in μg/mL for PBPs 1a/1b combined as well as for PBP2 and PBP3.
(§5) Representative results are shown in Table 2, where A represents a potency of >1000 μg/mL, B represents a potency between 64 and 1000 μg/mL inclusive, and C represents a potency of <64 μg/mL. NT=Not Tested.

[3] = test system: S. aureus ATCC 29213; test: Broth microdilution MIC assay, S. aureus; type: cell-based; conditions: Staphylococcus aureus, ATCC29213; broth microdilution, 16-20 hours at 37° C.; read-out: S. aureus 29213 MIC
Procedure, shortened: as §1

[4] = target: T1, E. coli PBP3 (Escherichia coli, UniProt P0AD68); test: Bocillin FL competition binding assay, PBP3; parameters: species or system Escherichia coli K12; conditions: 15 min pre-incubation
T1 construct: 100 μg's of total membrane protein extracts containing PBPs; endogenous in cells; host or cells: Escherichia coli K12, membrane protein fraction
T1 sequence (P0AD68 1-577): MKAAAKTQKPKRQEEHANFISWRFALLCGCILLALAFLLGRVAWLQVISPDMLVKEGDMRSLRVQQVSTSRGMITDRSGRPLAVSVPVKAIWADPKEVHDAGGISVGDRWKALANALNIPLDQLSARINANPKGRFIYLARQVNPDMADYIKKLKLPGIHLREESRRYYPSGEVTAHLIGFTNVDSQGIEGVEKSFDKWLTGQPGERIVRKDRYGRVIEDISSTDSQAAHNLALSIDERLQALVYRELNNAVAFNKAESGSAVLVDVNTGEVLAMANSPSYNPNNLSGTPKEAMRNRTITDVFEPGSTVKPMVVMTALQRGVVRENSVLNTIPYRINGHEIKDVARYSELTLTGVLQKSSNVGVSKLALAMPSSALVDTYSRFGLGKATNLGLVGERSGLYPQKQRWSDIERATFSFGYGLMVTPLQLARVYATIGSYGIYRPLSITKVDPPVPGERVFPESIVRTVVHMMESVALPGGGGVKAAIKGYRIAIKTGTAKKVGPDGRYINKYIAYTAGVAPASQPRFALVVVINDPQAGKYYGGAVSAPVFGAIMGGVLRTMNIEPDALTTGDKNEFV
Description: as §2, §3, §4, §5

[5] = target: T2, E. coli PBP2 (Escherichia coli, UniProt P0AD65); test: Bocillin FL competition binding assay, PBP2; parameters: species or system Escherichia coli K12; conditions: 15 min pre-incubation
T2 construct: 100 μg's of total membrane protein extracts containing PBPs; endogenous in cells; host or cells: Escherichia coli K12, membrane protein fraction
T2 sequence (P0AD65 whole entry): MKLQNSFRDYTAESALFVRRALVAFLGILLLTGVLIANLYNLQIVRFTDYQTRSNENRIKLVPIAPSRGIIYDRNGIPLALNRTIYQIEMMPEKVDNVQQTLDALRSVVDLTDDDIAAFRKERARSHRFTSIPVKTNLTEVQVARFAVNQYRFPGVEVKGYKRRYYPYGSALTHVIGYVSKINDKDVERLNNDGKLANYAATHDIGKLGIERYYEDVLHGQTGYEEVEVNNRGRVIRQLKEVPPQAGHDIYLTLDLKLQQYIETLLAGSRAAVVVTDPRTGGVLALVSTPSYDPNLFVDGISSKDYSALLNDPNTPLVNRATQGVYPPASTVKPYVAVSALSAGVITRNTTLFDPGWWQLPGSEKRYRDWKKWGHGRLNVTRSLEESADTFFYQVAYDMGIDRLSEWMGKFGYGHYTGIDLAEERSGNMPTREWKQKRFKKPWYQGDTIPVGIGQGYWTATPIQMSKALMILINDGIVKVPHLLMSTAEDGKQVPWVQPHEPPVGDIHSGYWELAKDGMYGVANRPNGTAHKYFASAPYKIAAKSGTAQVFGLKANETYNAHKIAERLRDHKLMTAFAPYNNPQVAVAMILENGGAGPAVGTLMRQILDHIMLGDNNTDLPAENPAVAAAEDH
Description: as §2, §3, §4, §5

Structure (SMILES)	MIC [1] [µg/mL]	E. coli K12 PBP1a/b Potency [2]	MIC [3] [µg/mL]	E. coli PBP3 Potency [4]	E. coli PBP2 Potency [5]
CC(C)(O/N=C(\C(=O)N[C@H]1Cc2cccc(C(=O)O)c2OB1O)c1csc(N)n1)C(=O)NCC(=O)O [Example 75, (R,Z)-3-(2-(2-aminothiazol-4-yl)-2-(((1-((carboxymethyl)amino)-2-methyl-1-oxopropan-2-yl)oxy)imino)acetamido)-2-hydroxy-3,4-dihydro-2H-benzo[e][1,2]oxaborinine-8-carboxylic Acid]	< 64	C (C represents a potency of <64 μg/mL)	> 128	C (C represents a potency of <64 μg/mL)	C (C represents a potency of <64 μg/mL)
N#Cc1ccc(NC(=O)CO/N=C(\C(=O)N[C@H]2Cc3cccc(C(=O)O)c3OB2O)c2csc(N)n2)cc1 [Example 56, (R,Z)-3-(2-(2-aminothiazol-4-yl)-2-((2-((4-cyanophenyl)amino)-2-oxoethoxy)imino)acetamido)-2-hydroxy-3,4-dihydro-2H-benzo[e][1,2]oxaborinine-8-carboxylic Acid]	< 64	B (B represents a potency between 64 and 1000 μg/mL inclusive)	64 to 128	C (C represents a potency of <64 μg/mL)	C (C represents a potency of <64 μg/mL)
Nc1nc(/C(=N\O)C(=O)N[C@H]2Cc3cccc(C(=O)O)c3OB2O)cs1 [Example 7, (R,E)-3-(2-(2-aminothiazol-4-yl)-2-(hydroxyimino)acetamido)-2-hydroxy-3,4-dihydro-2H-benzo[e][1,2]oxaborinine-8-carboxylic Acid]	< 64	A (A represents a potency of >1000 μg/mL)	64 to 128	A (A represents a potency of >1000 μg/mL)	B (B represents a potency between 64 and 1000 μg/mL inclusive)
N=C(NCCN)c1ccc(OCCO/N=C(\C(=O)N[C@H]2Cc3cccc(C(=O)O)c3OB2O)c2csc(N)n2)cc1 [Example 64, (R,Z)-3-(2-((2-(4-(N-(2-aminoethyl)carbamimidoyl)phenoxy)ethoxy)imino)-2-(2-aminothiazol-4-yl)acetamido)-2-hydroxy-3,4-dihydro-2H-benzo[e][1,2]oxaborinine-8-carboxylic Acid]	< 64	C (C represents a potency of <64 μg/mL)	> 128	C (C represents a potency of <64 μg/mL)	B (B represents a potency between 64 and 1000 μg/mL inclusive)
Nc1nc(/C(=N/O)C(=O)N[C@H]2Cc3cc(F)c(F)c(C(=O)O)c3OB2O)cs1 [Example 41, (R,Z)-3-(2-(2-aminothiazol-4-yl)-2-(hydroxyimino)acetamido)-6,7-difluoro-2-hydroxy-3,4-dihydro-2H-benzo[e][1,2]oxaborinine-8-carboxylic Acid]	< 64	B (B represents a potency between 64 and 1000 μg/mL inclusive)	64 to 128	B (B represents a potency between 64 and 1000 μg/mL inclusive)	B (B represents a potency between 64 and 1000 μg/mL inclusive)
Nc1nc(/C(=C/c2cccnc2)C(=O)N[C@H]2Cc3cccc(C(=O)O)c3OB2O)cs1 [Example 87, (R,Z)-3-(2-(2-aminothiazol-4-yl)-3-(pyridin-3-yl)acrylamido)-2-hydroxy-3,4-dihydro-2H-benzo[e][1,2]oxaborinine-8-carboxylic Acid]	< 64	A (A represents a potency of >1000 μg/mL)	64 to 128	B (B represents a potency between 64 and 1000 μg/mL inclusive)	B (B represents a potency between 64 and 1000 μg/mL inclusive)
NCCCC[C@H](NC(=O)CO/N=C(\C(=O)N[C@H]1Cc2cccc(C(=O)O)c2OB1O)c1csc(N)n1)C(=O)O [Example 65, (R)-3-((Z)-2-((2-(((S)-5-amino-1-carboxypentyl)amino)-2-oxoethoxy)imino)-2-(2-aminothiazol-4-yl)acetamido)-2-hydroxy-3,4-dihydro-2H-benzo[e][1,2]oxaborinine-8-carboxylic]	< 64	C (C represents a potency of <64 μg/mL)	> 128	C (C represents a potency of <64 μg/mL)	B (B represents a potency between 64 and 1000 μg/mL inclusive)
Nc1nc(/C(=N/OCC(=O)N2CCNCC2)C(=O)N[C@H]2Cc3cccc(C(=O)O)c3OB2O)cs1 [Example 58, (R,Z)-3-(2-(2-aminothiazol-4-yl)-2-((2-oxo-2-(piperazin-1-yl)ethoxy)imino)acetamido)-2-hydroxy-3,4-dihydro-2H-benzo[e][1,2]oxaborinine-8-carboxylic Acid]	< 64	B (B represents a potency between 64 and 1000 μg/mL inclusive)	> 128	C (C represents a potency of <64 μg/mL)	C (C represents a potency of <64 μg/mL)
N#Cc1ccc(OCCO/N=C(\C(=O)N[C@H]2Cc3cccc(C(=O)O)c3OB2O)c2csc(N)n2)cc1 [Example 46, (R,Z)-3-(2-(2-aminothiazol-4-yl)-2-((2-(4-cyanophenoxy)ethoxy)imino)acetamido)-2-hydroxy-3,4-dihydro-2H-benzo[e][1,2]oxaborinine-8-carboxylic Acid]	< 64	C (C represents a potency of <64 μg/mL)	64 to 128	B (B represents a potency between 64 and 1000 μg/mL inclusive)	C (C represents a potency of <64 μg/mL)
COc1cc2c(c(C(=O)O)c1)OB(O)[C@@H](NC(=O)/C(=N\O)c1csc(N)n1)C2 [Example 42, (R,Z)-3-(2-(2-aminothiazol-4-yl)-2-(hydroxyimino)acetamido)-2-hydroxy-6-methoxy-3,4-dihydro-2H-benzo[e][1,2]oxaborinine-8-carboxylic Acid]	< 64	C (C represents a potency of <64 μg/mL)	< 64	C (C represents a potency of <64 μg/mL)	C (C represents a potency of <64 μg/mL)
Nc1nc(/C(=N/O)C(=O)N[C@H]2Cc3cc(Cl)cc(C(=O)O)c3OB2O)cs1 [Example 44, (R,Z)-3-(2-(2-aminothiazol-4-yl)-2-(hydroxyimino)acetamido)-6-chloro-2-hydroxy-3,4-dihydro-2H-benzo[e][1,2]oxaborinine-8-carboxylic Acid]	< 64	B (B represents a potency between 64 and 1000 μg/mL inclusive)	< 64	B (B represents a potency between 64 and 1000 μg/mL inclusive)	B (B represents a potency between 64 and 1000 μg/mL inclusive)
